In patent US20040143007A1, “Malononitrile compounds and their use as pesticides” (priority 2001, published 2004):

Tests used:
Format in all cases: in vivo
[1] = test system: Culex pipiens pallens (common mosquito); test: Pesticidal test against Culex pipiens pallens, larvae in treated water (Test Example 7); conditions: 24 h, 0.7 ml of 500 ppm test liquid in 100 ml water (active ingredient 3.5 ppm), twenty final-instar larvae, after 1 days
Procedure: In 100 ml of ion-exchanged water, the test liquid had been prepared as described above, was added dropwise in an amount of 0.7 ml (the concentration of active ingredient was 3.5 ppm). Twenty final-instar larvae of Culex pipiens pallens (common mosquito) were set free in the solution. After 1 days, their survival was examined to determine the mortality.

[2] = test system: Blattalla germanica (German cockroach); test: Pesticidal test against Blattalla germanica, treated filter paper with sucrose bait (Test Example 6); conditions: Blattella germanica, 144 h; active ingredient 500 ppm, 0.7 ml on filter paper; two male adults; after 6 days
Source text: Two male adults of Blattalla germanica (German cockroach) were set free in the polyethylene cup, which was then kept covered. After 6 days, their survival was examined to determine the mortality.

[3] = test system: Musca domestics (house fly); test: Pesticidal test against Musca domestics, treated filter paper with sucrose bait (Test Example 5); conditions: active ingredient 500 ppm, 0.7 ml on filter paper, ten female adults, after 24 hours
Procedure: Ten female adults of Musca domestics (house fly) were set free in the polyethylene cup, which was then kept covered. After 24 hours, their survival was examined to determine the mortality.

[4] = test system: Diabrotica undecimpunctata (southern corn rootworm); test: Pesticidal test against Diabrotica undecimpunctata, filter paper with corn seed and eggs (Test Example 4); conditions: active ingredient 50 ppm, 1 ml on filter paper, 30 to 50 eggs, 25° C.
Procedure: One germinated seed of corn and 30 to 50 eggs of Diabrotica undecimpunctata (southern corn rootworm) was placed on the filter paper in the polyethylene cup, which was then kept covered and left in a room at 25° C. On the 6th day after, the number of surviving larvae of Diabrotica undecimpunctata was examined.

N#CC(C#N)(Cc1ccc(C(F)(F)F)cc1)CC1CC1(Cl)Cl (stereo not drawn) [Compound 10, 2-((2,2-dichlorocyclopropyl)methyl)-2-(4-(trifluoromethyl)benzyl)malononitrile]
mortality at 3.5 µg/mL [1]: 100%
mortality at 500 ppm [2]: 100%
mortality at 500 ppm [3]: 100%

N#CC(C#N)(Cc1ccc(Cl)cc1)CC1CC1 [Compound 1, 2-(4-chlorobenzyl)-2-(cyclopropylmethyl)malononitrile]
mortality at 3.5 µg/mL [1]: 100%
mortality at 500 ppm [2]: 100%
number of surviving pests on the 6th day after [4]: 0

N#CC(C#N)(Cc1ccc(C(F)(F)F)cc1)CC1CC1 [Compound 6, 2-(cyclopropylmethyl)-2-(4-(trifluoromethyl)benzyl)malononitrile]
mortality at 3.5 µg/mL [1]: 100%
mortality at 500 ppm [2]: 100%
mortality at 500 ppm [3]: 100%

N#CC(C#N)(Cc1ccc(C(F)(F)F)cc1)CC1CCC1 [Compound 7, 2-(cyclobutylmethyl)-2-(4-(trifluoromethyl)benzyl)malononitrile]
mortality at 3.5 µg/mL [1]: 100%
mortality at 500 ppm [2]: 100%
mortality at 500 ppm [3]: 100%

N#CC(C#N)(Cc1ccc(SC(F)(F)F)cc1)CC1CCC1 [Compound 4, 2-(cyclobutylmethyl)-2-(4-(trifluoromethylthio)benzyl)malononitrile]
mortality at 3.5 µg/mL [1]: 100%
mortality at 500 ppm [2]: 100%
mortality at 500 ppm [3]: 100%

N#CC(C#N)(Cc1ccc(OC(F)(F)F)cc1)CC1CCC1 [Compound 3, 2-(cyclobutylmethyl)-2-(4-(trifluoromethoxy)benzyl)malononitrile]
mortality at 3.5 µg/mL [1]: 100%
mortality at 500 ppm [3]: 100%

N#Cc1ccc(CC(C#N)(C#N)CC2CC2(Cl)Cl)cc1 (stereo not drawn) [Compound 9, 2-(4-cyanobenzyl)-2-((2,2-dichlorocyclopropyl)methyl)malononitrile]
mortality at 3.5 µg/mL [1]: 100%

N#CC(C#N)(Cc1ccc(OC(F)(F)F)cc1)CC1CC1 [Compound 2, 2-(cyclopropylmethyl)-2-(4-(trifluoromethoxy)benzyl)malononitrile]
mortality at 3.5 µg/mL [1]: 100%
mortality at 500 ppm [2]: 100%
number of surviving pests on the 6th day after [4]: 0
mortality at 500 ppm [3]: 100%

N#CC(C#N)(Cc1ccc(OC(F)(F)F)cc1)CC1CC1(Cl)Cl (stereo not drawn) [Compound 5, 2-((2,2-dichlorocyclopropyl)methyl)-2-(4-(trifluoromethoxy)benzyl)malononitrile]
mortality at 3.5 µg/mL [1]: 100%
mortality at 500 ppm [3]: 100%
